Reference: patent US9034887B2, “Dihydroorotate dehydrogenase as antifungal drug target and quinazolinone-based inhibitors thereof” (F2G Limited, priority 2008, dated 2015)
Values after ≈ are worked out from the molar mass of the structure shown.

Experiments:
Assay type in all cases: cell-based
Aspergillus fumigatus = assay: MIC in YAG medium, A. fumigatus; details: 24 hrs at 35° C., >70% growth inhibition, read-out: MIC grade, A. fumigatus
Protocol: (§1) Between 1 and 5 mgs of compound were accurately weighed out into a sterile Eppendorf tube. The compound was dissolved in DMSO to give a solution containing 5 mg/mL. Tubes were stored at −20° C. until required.
(§2) On the day of testing thawed solutions were vortex mixed to ensure homogeneity. 30 μL of solution was removed and added to 570 μL of sterile water in a separate sterile Eppendorf. The thoroughly mixed solution was used to prepare a series of doubling dilutions in water, in a deep well plate. Thirteen replicate plates were prepared using a Minitrak by aspirating 20 μL from each well into eleven clear polystyrene 96 well plates.
(§3) Spores of Aspergillus spp. (Aspergillus fumigatus [two strains], Aspergillus terreus [two strains], Aspergillus niger and Aspergillus flavus) were harvested from cultures grown on Sabarauds agar for 5 days, and resuspended in PBS/Tween 80 to approx 1×10^7 cfu/mL. Each organism suspension was diluted in YAG medium (1% glucose, 1% ammonium chloride and 0.5% yeast extract) to 0.5-2×10^4 cfu/mL. 80 μL of an organism suspension was added to each well of the plate containing drug dilutions.
(§4) All plates were incubated for 24 hrs at 35° C. Growth was assessed by monitoring the optical density at 485 nm for each well. The MIC of a compound is the lowest drug concentration that inhibits growth of an organism by >70% compared with a drug free control. MICs are recorded as mg/L. In cases where the MIC of an organism is […] the MIC is repeated using a concentration range of 0.5-0.0005 mg/L.

Aspergillus terreus AT49 = assay: MIC in RPMI medium, A. terreus 49; details: 24-48 hrs at 35° C., >80% growth inhibition, read-out: MIC grade, A. terreus 49
Protocol: as §1, §2
(§5) Assays were also performed in RPMI medium. To perform MIC tests in this medium, dilutions of compounds are prepared in microtitre plates as described above. Fungal strains to be tested are grown and harvested in an identical manner to that described above, and each organism suspension was diluted in RPMI medium, containing 2% glucose and 0.135 M MOPS buffer (pH 7.0) to 0.5-2×10^4 cfu/mL, rather than in YAG medium. 80 μL of an organism suspension was added to each well of the plate containing drug dilutions.
(§6) All plates were incubated for 24-48 hrs at 35° C. Growth was assessed by monitoring the optical density at 485 nm for each well. […] The following organisms were tested: Aspergillus flavus, Aspergillus fumigatus AF293 and AF210, Aspergillus niger and Aspergillus terreus AT4 and AT49.

[1] = tested on: Aspergillus fumigatus AF293; assay: MIC in RPMI medium, A. fumigatus; details: 24-48 hrs at 35° C., >80% growth inhibition, read-out: MIC grade, A. fumigatus
Protocol: as §1, §2, §5, §6

A. terreus 49 = assay: MIC in YAG medium, A. terreus 49; details: Aspergillus terreus, 24 hrs at 35° C., >70% growth inhibition, read-out: MIC grade, A. terreus 49
Protocol: as §1, §2, §3, §4

A. fumigatus 210 = assay: MIC in YAG medium, A. fumigatus 210; details: Aspergillus fumigatus, 24 hrs at 35° C., >70% growth inhibition, read-out: MIC grade, A. fumigatus 210
Protocol: as §1, §2, §3, §4

Aspergillus terreus AT4 = assay: MIC in RPMI medium, A. terreus; details: 24-48 hrs at 35° C., >80% growth inhibition, read-out: MIC grade, A. terreus
Protocol: as §1, §2, §5, §6

Aspergillus terreus = assay: MIC in YAG medium, A. terreus; details: 24 hrs at 35° C., >70% growth inhibition, read-out: MIC grade, A. terreus
Protocol: as §1, §2, §3, §4

Aspergillus flavus [2] = assay: MIC in YAG medium, A. flavus; details: 24 hrs at 35° C., >70% growth inhibition, read-out: MIC grade, A. flavus
Protocol: as §1, §2, §3, §4

Aspergillus flavus [3] = assay: MIC in RPMI medium, A. flavus; details: 24-48 hrs at 35° C., >80% growth inhibition, read-out: MIC grade, A. flavus
Protocol: as §1, §2, §5, §6

Aspergillus niger [4] = assay: MIC in RPMI medium, A. niger; details: 24-48 hrs at 35° C., >80% growth inhibition, read-out: MIC grade, A. niger
Protocol: as §1, §2, §5, §6

Aspergillus niger [5] = assay: MIC in YAG medium, A. niger; details: 24 hrs at 35° C., >70% growth inhibition, read-out: MIC grade, A. niger
Protocol: as §1, §2, §3, §4

[6] = tested on: Aspergillus fumigatus AF210; assay: MIC in RPMI medium, A. fumigatus 210; details: 24-48 hrs at 35° C., >80% growth inhibition, read-out: MIC grade, A. fumigatus 210
Protocol: as §1, §2, §5, §6

Structure (SMILES): COc1ccccc1-n1c(SC(C)C)nc2cc(C)ccc2c1=O [Compound Example 1, 2-Isopropylsulfanyl-3-(2-methoxy-phenyl)-7-methyl-3H-quinazolin-4-one]
- MIC (Aspergillus fumigatus): < 1 µg/mL
- MIC (Aspergillus terreus AT49): < 1 µg/mL
- MIC [1]: 1 to 10 µg/mL (≈ 2.94 to 29.4 µM)
- MIC (A. terreus 49): < 1 µg/mL
- MIC (A. fumigatus 210): < 1 µg/mL
- MIC (Aspergillus terreus AT4): < 1 µg/mL
- MIC (Aspergillus terreus): < 1 µg/mL
- MIC (Aspergillus flavus [2]): < 1 µg/mL
- MIC (Aspergillus flavus [3]): > 10 µg/mL
- MIC (Aspergillus niger [4]): > 10 µg/mL
- MIC (Aspergillus niger [5]): < 1 µg/mL
- MIC [6]: 1 to 10 µg/mL (≈ 2.94 to 29.4 µM)

Structure (SMILES): COc1ccccc1-n1c(SC(C)C)nc2ccc(C)cc2c1=O [Compound Example 2, 2-Isopropylsulfanyl-3-(2-methoxy-phenyl)-6-methyl-3H-quinazolin-4-one]
- MIC (Aspergillus fumigatus): < 1 µg/mL
- MIC (Aspergillus terreus AT49): 1 to 10 µg/mL (≈ 2.94 to 29.4 µM)
- MIC [1]: 1 to 10 µg/mL (≈ 2.94 to 29.4 µM)
- MIC (A. terreus 49): < 1 µg/mL
- MIC (A. fumigatus 210): < 1 µg/mL
- MIC (Aspergillus terreus AT4): > 10 µg/mL
- MIC (Aspergillus terreus): < 1 µg/mL
- MIC (Aspergillus flavus [2]): > 10 µg/mL
- MIC (Aspergillus flavus [3]): > 10 µg/mL
- MIC (Aspergillus niger [4]): < 1 µg/mL
- MIC (Aspergillus niger [5]): < 1 µg/mL
- MIC [6]: 1 to 10 µg/mL (≈ 2.94 to 29.4 µM)

Structure (SMILES): COc1ccccc1-n1c(SC(C)C)nc2cccc(C)c2c1=O [Compound Example 3, 2-Isopropylsulfanyl-3-(2-methoxy-phenyl)-5-methyl-3H-quinazolin-4-one]
- MIC (Aspergillus fumigatus): < 1 µg/mL
- MIC (Aspergillus terreus AT49): 1 to 10 µg/mL (≈ 2.94 to 29.4 µM)
- MIC [1]: 1 to 10 µg/mL (≈ 2.94 to 29.4 µM)
- MIC (A. terreus 49): < 1 µg/mL
- MIC (A. fumigatus 210): < 1 µg/mL
- MIC (Aspergillus terreus AT4): > 10 µg/mL
- MIC (Aspergillus terreus): < 1 µg/mL
- MIC (Aspergillus flavus [2]): > 10 µg/mL
- MIC (Aspergillus flavus [3]): > 10 µg/mL
- MIC (Aspergillus niger [4]): < 1 µg/mL
- MIC (Aspergillus niger [5]): < 1 µg/mL
- MIC [6]: 1 to 10 µg/mL (≈ 2.94 to 29.4 µM)
